Reference: ChEMBL document CHEMBL3763048, “Design and discovery of 3-aryl-5-substituted-isoquinolin-1-ones as potent tankyrase inhibitors” (Medchemcomm, 2015)
Calls of active or inactive are those of the source. No cut-off for these calls is given here.

Experiments:
[1] = Aqueous solubility of the compound in phosphate buffer at pH 7.4; assay type: physicochemical
[2] = Intrinsic clearance in mouse liver microsomes assessed per mg of protein; assay type: ADME; details: read-out: CLH
SW480 = assay: Induction of cellular DNA damage PARylation in human SW480 cells at >100 uM by Western blot analysis; assay type: functional, cell-based
[3] = Intrinsic clearance in human liver microsomes assessed per mg of protein; assay type: ADME; details: read-out: CLH

Row | solubility [1] | microsomal CLint [2] | microsomal CLint [3] | SMILES | Activity (SW480)
1 | > 100 µM | – | – | CN(C)Cc1ccc(-c2cc3ccccc3c(=O)[nH]2)cc1 | –
2 | > 100 µM | 10 µL/min/mg | 5 µL/min/mg | Cc1cccc2c(=O)[nH]c(-c3ccc(CN4CCC(N(C)C)CC4)cc3)cc12 | Active
3 | > 100 µM | – | – | COc1cccc2c(=O)[nH]c(-c3ccc(CN(C)C)cc3)cc12 | –
